# Measured values taken from patent US9854801B2, “Weed control from applications of an ethylene inhibitor and a pyridine carboxylic acid herbicide” (Dow AgroSciences LLC, priority 2015, dated 2018).
# “And” between values parts separate entries of the source, which are not always exact repeats. Equal entries are not always repeated.
# Experiments:
# Format in all cases: in vivo
# Details in all cases: 20-21 days after application
# [1] = tested on: yellow nutsedge, Cyperus esculentus L. (CYPES); experiment: Foliar-applied greenhouse weed control, yellow nutsedge (CYPES)
# Procedure: (§1) The soil matrix was contained in plastic pots with a volume of 1 quart and a surface area of 83.6 cm^2. When required, to ensure good germination and healthy plants, a fungicide treatment and/or other chemical or physical treatment was applied. The plants were grown for 10-22 days in a greenhouse with an approximate 14 h photoperiod which was maintained at about 29° C. during the day and 26° C. during the night. Nutrients (Peters Excel® 15-5-15 5-Ca 2-Mg and iron chelate) were applied in the irrigation solution as needed and water was added on a regular basis. Supplemental lighting was provided with overhead metal halide 1000-Watt lamps as necessary. The plants were employed for testing when they reached the second or third true leaf stage. […] The compounds were applied on an active ingredient basis. […] All stock solutions and applications solutions were visually inspected for compound compatibility prior to application. […] Control plants were sprayed in the same manner with the solvent blank. The treated plants and control plants were placed in a greenhouse as described above and watered by sub-irrigation to prevent wash-off of the test compounds. […] Colby's equation was used to determine the herbicidal effects expected from the mixtures. The combinations tested, ratios employed, plant species tested, and results are included in Table 1 below.
# [2] = tested on: ivyleaf morning glory, Ipomoea hederacea (L.) Jacq. (IPOHE); experiment: Foliar-applied greenhouse weed control, ivyleaf morning glory (IPOHE)
# Procedure: as §1
# [3] = tested on: junglerice, Echinochloa colonum (L.) LINK (ECHCO); experiment: Foliar-applied greenhouse weed control, junglerice (ECHCO)
# Procedure: as §1
# [4] = tested on: barnyard grass, Echinochloa crus-galli (L.) P. Beauv. (ECHCG); experiment: Foliar-applied greenhouse weed control, barnyard grass (ECHCG)
# Procedure: as §1
# [5] = tested on: large crabgrass, Digitaria sanguinalis (L.) Scop. (DIGSA); experiment: Foliar-applied greenhouse weed control, large crabgrass (DIGSA)
# Procedure: as §1
smiles,measurement,setting,value
"CC1=CC1 [1-methylcyclopropene, reference compound]",1-methylcyclopropene % Visual Weed Control,[1]; 5 g ai/ha alone,0%
same,1-methylcyclopropene % Visual Weed Control,[2]; 2 g ai/ha alone,0%
same,1-methylcyclopropene % Visual Weed Control,[2]; 4 g ai/ha alone,0%
same,1-methylcyclopropene % Visual Weed Control,[2]; 5 g ai/ha alone,0%
same,1-methylcyclopropene % Visual Weed Control,[2]; 10 g ai/ha alone,0%
same,1-methylcyclopropene % Visual Weed Control,[3]; 2 g ai/ha alone,0%
same,1-methylcyclopropene % Visual Weed Control,[3]; 4 g ai/ha alone,0%
same,1-methylcyclopropene % Visual Weed Control,[4]; 2 g ai/ha alone,0%
same,1-methylcyclopropene % Visual Weed Control,[4]; 4 g ai/ha alone,0%
same,1-methylcyclopropene % Visual Weed Control,[4]; 5 g ai/ha alone,0%
same,1-methylcyclopropene % Visual Weed Control,[4]; 10 g ai/ha alone,0%
same,1-methylcyclopropene % Visual Weed Control,[4]; 20 g ai/ha alone,0%
same,1-methylcyclopropene % Visual Weed Control,[5]; 2 g ai/ha alone,0%
same,1-methylcyclopropene % Visual Weed Control,[5]; 4 g ai/ha alone,0%
same,1-methylcyclopropene % Visual Weed Control,[5]; 5 g ai/ha alone,0%
same,1-methylcyclopropene % Visual Weed Control,[5]; 10 g ai/ha alone,0%
same,1-methylcyclopropene % Visual Weed Control,[5]; 20 g ai/ha alone,0%
"COc1c(Cl)ccc(-c2nc(C(=O)OCc3ccccc3)c(Cl)c(N)c2F)c1F [Formula (II) benzyl ester, benzyl ester of 4-amino-3-chloro-5-fluoro-6-(4-chloro-2-fluoro-3-methoxy-phenyl) pyridine-2-carboxylic acid]",Formula (II) benzyl ester % Visual Weed Control,[1]; 8 g ai/ha alone,70%
same,Formula (II) benzyl ester % Visual Weed Control,[1]; 16 g ai/ha alone,88%
same,Formula (II) benzyl ester % Visual Weed Control,[1]; 32 g ai/ha alone,73%
same,Formula (II) benzyl ester % Visual Weed Control,[2]; 16 g ai/ha alone,18% and 25%
same,Formula (II) benzyl ester % Visual Weed Control,[2]; 32 g ai/ha alone,35% and 48%
same,Formula (II) benzyl ester % Visual Weed Control,[3]; 8 g ai/ha alone,50%
same,Formula (II) benzyl ester % Visual Weed Control,[3]; 16 g ai/ha alone,50%
same,Formula (II) benzyl ester % Visual Weed Control,[3]; 32 g ai/ha alone,80%
same,Formula (II) benzyl ester % Visual Weed Control,[4]; 8 g ai/ha alone,40% and 63%
same,Formula (II) benzyl ester % Visual Weed Control,[4]; 16 g ai/ha alone,63% and 78%
same,Formula (II) benzyl ester % Visual Weed Control,[4]; 32 g ai/ha alone,83% and 90%
same,Formula (II) benzyl ester % Visual Weed Control,[5]; 8 g ai/ha alone,13% and 20%
same,Formula (II) benzyl ester % Visual Weed Control,[5]; 16 g ai/ha alone,23% and 28%
same,Formula (II) benzyl ester % Visual Weed Control,[5]; 32 g ai/ha alone,30% and 33%
